Test results taken from ChEMBL document CHEMBL1134023, “The discovery of RFI-641 as a potent and selective inhibitor of the respiratory syncytial virus” (Bioorg Med Chem Lett, 2001).

Tests used:
[1] = Inhibitory concentration required against HSV-1 (Herpes simplex virus) by using HSV-1 in ELISA assay; assay type: functional
[2] = test system: Human betaherpesvirus 5; assay: Inhibitory concentration required against HCMV (Human cytomegalovirus) by using HCMV AD169 and assay is via an indicator gene in the virus; assay type: functional, organism-based
[3] = test system: Human orthopneumovirus; assay: In vitro inhibitory concentration against HRSV (Human respiratory syncytial virus) by using RSV A2 and the assay is by ELISA; assay type: functional, organism-based
[4] = test system: Respiratory syncytial virus; assay: In vitro inhibitory activity against respiratory syncytial virus (RSV); assay type: functional, organism-based; details: human respiratory syncytial virus

Row | Compound | IC50 [1] [µM] | IC50 [2] [µM] | IC50 [3] [µM] | IC50 [4] [µM]
1 | NC(=O)CCNS(=O)(=O)c1cccc(Nc2nc(Nc3cccc(S(=O)(=O)NCCC(N)=O)c3)nc(Nc3ccc(-c4ccc(Nc5nc(Nc6cccc(S(=O)(=O)NCCC(N)=O)c6)nc(Nc6cccc(S(=O)(=O)NCCC(N)=O)c6)n5)cc4S(=O)(=O)O)c(S(=O)(=O)O)c3)n2)c1 | 23.2 | 2.64 | 0.66 | 
2 | NC(=O)CCCN(CCCC(N)=O)S(=O)(=O)c1cccc(Nc2nc(Nc3cccc(S(=O)(=O)N(CCCC(N)=O)CCCC(N)=O)c3)nc(Nc3ccc(-c4ccc(Nc5nc(Nc6cccc(S(=O)(=O)N(CCCC(N)=O)CCCC(N)=O)c6)nc(Nc6cccc(S(=O)(=O)N(CCCC(N)=O)CCCC(N)=O)c6)n5)cc4S(=O)(=O)O)c(S(=O)(=O)O)c3)n2)c1 | 8.5 | 5.8 | 0.1 | 
3 | NC(=O)CCN(CCC(N)=O)S(=O)(=O)c1cccc(Nc2nc(Nc3cccc(S(=O)(=O)N(CCC(N)=O)CCC(N)=O)c3)nc(Nc3ccc(-c4ccc(Nc5nc(Nc6cccc(S(=O)(=O)N(CCC(N)=O)CCC(N)=O)c6)nc(Nc6cccc(S(=O)(=O)N(CCC(N)=O)CCC(N)=O)c6)n5)cc4S(=O)(=O)O)c(S(=O)(=O)O)c3)n2)c1 | 19.5 | 13.9 | 0.08 | 0.05
4 | NC(=O)CCN(CCC(N)=O)S(=O)(=O)c1cccc(Nc2nc(Nc3cccc(S(=O)(=O)N(CCC(N)=O)CCC(N)=O)c3)nc(Nc3ccc(/C=C/c4ccc(Nc5nc(Nc6cccc(S(=O)(=O)N(CCC(N)=O)CCC(N)=O)c6)nc(Nc6cccc(S(=O)(=O)N(CCC(N)=O)CCC(N)=O)c6)n5)cc4S(=O)(=O)O)c(S(=O)(=O)O)c3)n2)c1 |  |  |  | 0.15
5 | NC(=O)CNS(=O)(=O)c1cccc(Nc2nc(Nc3cccc(S(=O)(=O)NCC(N)=O)c3)nc(Nc3ccc(-c4ccc(Nc5nc(Nc6cccc(S(=O)(=O)NCC(N)=O)c6)nc(Nc6cccc(S(=O)(=O)NCC(N)=O)c6)n5)cc4S(=O)(=O)O)c(S(=O)(=O)O)c3)n2)c1 | > 25 | 1.37 | 0.27 | 
6 | NC(=O)CN(CC(N)=O)S(=O)(=O)c1cccc(Nc2nc(Nc3cccc(S(=O)(=O)N(CC(N)=O)CC(N)=O)c3)nc(Nc3ccc(-c4ccc(Nc5nc(Nc6cccc(S(=O)(=O)N(CC(N)=O)CC(N)=O)c6)nc(Nc6cccc(S(=O)(=O)N(CC(N)=O)CC(N)=O)c6)n5)cc4S(=O)(=O)O)c(S(=O)(=O)O)c3)n2)c1 [RF-1461] | 7.7 | 2.55 | 0.05 | 
